This assay concerns the target T1, androgen receptor (Homo sapiens, UniProt P10275, T878A).
T1 construct: host or cells: LNCaP.FGC
In words: Androgen receptor degradation assay using Western blot analysis. The format is cell-based. Here is the method:
Cells not treated with any of the above-mentioned compounds are used as a negative control.
The internal loading control GAPDH was detected using a mouse monoclonal antibody (1:5000) (GTX627408, GeneTex International Corp., HsinChu City, Taiwan R.O.C.) and a goat anti-mouse HRP-conjugated secondary antibody (1:5000 dilution) (C04001, Croyez Bioscience Co., Ltd., Taipei City, Taiwan R.O.C.).
AR remaining percentage was determined by the intensity difference of AR signals (each was normalized by the corresponding internal loading control GAPDH) between the protein samples from the untreated cells (100%) and those from the treated cells. “Cpd. #” indicates the compound number hereinabove.
In addition, several compounds were selected to prepare a treatment stock solutions at 100 nM in RPMI medium. The treatment stock solutions were separately serially diluted (10×) with RPMI medium for treating LNCaP.FGC cells seeded with 2×10^5 cells per well in 24-well tissue culture plates. A calibration curve was determined by the serial diluted samples for each compound, and the concentration needed for 50% AR degradation (AR DC50) for each compound was calculated.
For orientation: Immunoblotting shows a protein as a band on a membrane.

Setting [1] is: 24 h, LNCaP.FGC cells, 100 nM, 24 hr, normalized to GAPDH, untreated cells = 100%; read-out: Androgen Receptor Remaining (%).
Setting [2] is: LNCaP.FGC cells, serial 10x dilutions from 100 nM; read-out: AR DC50 (concentration needed for 50% AR degradation).
[3] abbreviates: 24 h, read-out: Androgen Receptor Remaining (%), LNCaP.FGC cells, 100 nM, 24 hr, normalized to GAPDH, untreated cells = 100%.
Where [4] appears, read: LNCaP.FGC cells, 100 nM, 24 hr, normalized to GAPDH, untreated cells = 100%.
[5] abbreviates: read-out: AR DC50 (concentration needed for 50% AR degradation); LNCaP.FGC cells, serial 10x dilutions from 100 nM.

Read-outs that look alike come from different tables or passages of the source. Where only a bound is given, the exact number is not on record here.

T1 sequence (P10275 whole entry T878A): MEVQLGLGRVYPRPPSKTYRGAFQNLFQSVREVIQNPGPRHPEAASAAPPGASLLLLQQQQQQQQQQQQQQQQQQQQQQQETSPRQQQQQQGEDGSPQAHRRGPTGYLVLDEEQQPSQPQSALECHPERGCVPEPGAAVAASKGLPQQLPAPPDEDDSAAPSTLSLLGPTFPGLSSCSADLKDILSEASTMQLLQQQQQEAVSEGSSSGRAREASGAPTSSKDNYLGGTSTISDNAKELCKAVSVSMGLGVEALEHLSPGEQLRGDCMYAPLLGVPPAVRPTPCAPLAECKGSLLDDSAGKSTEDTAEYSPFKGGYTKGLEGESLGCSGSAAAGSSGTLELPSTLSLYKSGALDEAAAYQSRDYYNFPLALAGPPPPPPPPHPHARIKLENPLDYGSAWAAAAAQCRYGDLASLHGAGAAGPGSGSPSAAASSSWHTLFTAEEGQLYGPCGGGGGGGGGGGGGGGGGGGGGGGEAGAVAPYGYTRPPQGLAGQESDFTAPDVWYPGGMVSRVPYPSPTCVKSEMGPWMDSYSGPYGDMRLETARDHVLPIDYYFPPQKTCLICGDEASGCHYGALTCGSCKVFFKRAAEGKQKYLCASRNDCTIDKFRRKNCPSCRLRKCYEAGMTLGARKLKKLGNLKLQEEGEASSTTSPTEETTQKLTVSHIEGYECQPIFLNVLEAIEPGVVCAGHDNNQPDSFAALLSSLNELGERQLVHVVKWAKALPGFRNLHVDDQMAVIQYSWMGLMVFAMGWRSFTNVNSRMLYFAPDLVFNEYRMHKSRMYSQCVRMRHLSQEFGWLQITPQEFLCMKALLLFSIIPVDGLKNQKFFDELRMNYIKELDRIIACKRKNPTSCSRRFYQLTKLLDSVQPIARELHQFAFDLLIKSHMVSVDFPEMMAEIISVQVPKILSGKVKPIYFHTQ
T1 sequence (Q96SW2 whole entry partner): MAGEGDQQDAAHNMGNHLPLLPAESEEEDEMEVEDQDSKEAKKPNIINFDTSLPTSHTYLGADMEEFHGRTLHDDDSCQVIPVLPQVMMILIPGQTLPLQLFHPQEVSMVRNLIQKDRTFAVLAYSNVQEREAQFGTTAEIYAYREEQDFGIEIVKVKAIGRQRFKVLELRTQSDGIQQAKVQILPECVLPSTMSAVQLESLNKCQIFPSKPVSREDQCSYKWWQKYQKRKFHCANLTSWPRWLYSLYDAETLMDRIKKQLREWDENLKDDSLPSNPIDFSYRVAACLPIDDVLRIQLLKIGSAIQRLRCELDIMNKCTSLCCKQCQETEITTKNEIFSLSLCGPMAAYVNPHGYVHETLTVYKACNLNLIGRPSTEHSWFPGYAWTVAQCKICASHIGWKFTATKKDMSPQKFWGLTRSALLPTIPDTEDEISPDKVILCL

Regarding `Cn1c2c(c3ccc(OCCN4CCN(c5ccc(C(=O)N[C@H]6C(C)(C)[C@H](Oc7ccc(C#N)c(Cl)c7)C6(C)C)cc5)CC4)cc31)C(=O)N(C1CCC(=O)NC1=O)C2=O` (some centres unmarked) [Compound 1], under setting [1], the remaining activity at 0.1 µM worked out at 47%. The DC50 under setting [2] fell in the range of 10 to 25 nM.

Consider `CCn1c2c(c3ccc(OCCC4CCN(c5ccc(C(=O)N[C@H]6CC[C@H](Oc7ccc(C#N)c(Cl)c7)CC6)nn5)CC4)cc31)C(=O)N(C1CCC(=O)NC1=O)C2=O` (some centres unmarked) [Compound 2], for which the remaining activity at 0.1 µM under setting [3] was 56%.

As for `Cn1c2c(c3ccc(OCCN4CCN(c5ccc(C(=O)N[C@H]6CC[C@H](Oc7ccc(C#N)c(Cl)c7)CC6)nn5)CC4)cc31)C(=O)N(C1CCC(=O)NC1=O)C2=O` (some centres unmarked) [Compound 3], under setting [1], the remaining activity at 0.1 µM came out at 32%. Moreover, under setting [2], the DC50 was in the range of 25 to 100 nM.

With `CCn1c2c(c3cc(OCCN4CCN(c5ccc(C(=O)N[C@H]6C(C)(C)[C@H](Oc7ccc(C#N)c(Cl)c7)C6(C)C)cc5)CC4)ccc31)C(=O)N(C1CCC(=O)NC1=O)C2=O` (some centres unmarked) [Compound 4], the remaining activity at 0.1 µM under setting [3] worked out at 66%.

With `CCn1c2c(c3cc(OCCN4CCN(c5ccc(C(=O)N[C@H]6C(C)(C)[C@H](Oc7ccc(C#N)c(Cl)c7)C6(C)C)cn5)CC4)ccc31)C(=O)N(C1CCC(=O)NC1=O)C2=O` (some centres unmarked) [Compound 5], the remaining activity at 0.1 µM under setting [3] is 51%.

Turning to `Cn1c2c(c3ccc(OCCN4CCN(c5ccc(C(=O)N[C@H]6C(C)(C)[C@H](Oc7ccc(C#N)c(Cl)c7)C6(C)C)cn5)CC4)cc31)C(=O)N(C1CCC(=O)NC1=O)C2=O` (some centres unmarked) [Compound 6], under setting [1], the remaining activity at 0.1 µM stood at 31%. Under setting [2], the DC50 is 25 to 100 nM.

On to `CC1(C)[C@H](NC(=O)c2ccc(N3CCN(CCOc4ccc5c6c(sc5c4)C(=O)N(C4CCC(=O)NC4=O)C6=O)CC3)cn2)C(C)(C)[C@H]1Oc1ccc(C#N)c(Cl)c1` (some centres unmarked) [Compound 7], for which the “Androgen Receptor Remaining (%)” value under setting [4] amounted to 45%. Moreover, the DC50 under setting [2] lay within 25 to 100 nM.

Consider `Cn1c2c(c3ccc(OCCCN4CCN(c5ccc(C(=O)N[C@H]6C(C)(C)[C@H](Oc7ccc(C#N)c(Cl)c7)C6(C)C)cn5)CC4)cc31)C(=O)N(C1CCC(=O)NC1=O)C2=O` (some centres unmarked) [Compound 8], for which the remaining activity at 0.1 µM under setting [1] stood at 22%. In addition, the DC50 under setting [2] lay within 10 to 25 nM.

On to `Cn1c2c(c3ccc(OCCN4CCN(c5ccc(C(=O)N[C@H]6C(C)(C)[C@H](Oc7ccc(C#N)c(Cl)c7)C6(C)C)nc5)CC4)cc31)C(=O)N(C1CCC(=O)NC1=O)C2=O` (some centres unmarked) [Compound 9], for which, under setting [1], the remaining activity at 0.1 µM is 73%. Further, the DC50 under setting [2] was > 100 nM.

On to `Cn1c2c(c3cc(OCCN4CCN(c5ccc(C(=O)N[C@H]6C(C)(C)[C@H](Oc7ccc(C#N)c(Cl)c7)C6(C)C)nc5)CC4)ccc31)C(=O)N(C1CCC(=O)NC1=O)C2=O` (some centres unmarked) [Compound 10], for which the remaining activity at 0.1 µM under setting [1] stood at 37%. In addition, under setting [2], the DC50 lay in the range of 25 to 100 nM.

As to `Cn1c2c(c3ccc(OCCCN4CCN(c5ccc(C(=O)N[C@H]6C(C)(C)[C@H](Oc7ccc(C#N)c(Cl)c7)C6(C)C)nc5)CC4)cc31)C(=O)N(C1CCC(=O)NC1=O)C2=O` (some centres unmarked) [Compound 11], under setting [1], the remaining activity at 0.1 µM was 73%.

As to `Cn1c2c(c3ccc(OCCCN4CCN(c5ccc(C(=O)N[C@H]6C(C)(C)[C@H](Oc7ccc(C#N)c(Cl)c7)C6(C)C)cc5)CC4)cc31)C(=O)N(C1CCC(=O)NC1=O)C2=O` (some centres unmarked) [Compound 12], under setting [1], the remaining activity at 0.1 µM amounted to 42%. For the same compound, the DC50 under setting [2] is 25 to 100 nM.

For `CC(C)n1c2c(c3cc(OCCN4CCN(c5ccc(C(=O)N[C@H]6C(C)(C)[C@H](Oc7ccc(C#N)c(Cl)c7)C6(C)C)nc5)CC4)ccc31)C(=O)N(C1CCC(=O)NC1=O)C2=O` (some centres unmarked) [Compound 13], the remaining activity at 0.1 µM under setting [3] came to 155%.

As for `CC1(C)[C@H](NC(=O)c2ccc(N3CCN(CCCOc4ccc5c6c(sc5c4)C(=O)N(C4CCC(=O)NC4=O)C6=O)CC3)cn2)C(C)(C)[C@H]1Oc1ccc(C#N)c(Cl)c1` (some centres unmarked) [Compound 14], under setting [1], the remaining activity at 0.1 µM was found to be 70%.

Regarding `Cn1c2c(c3cc(OCCN4CCN(c5ccc(C(=O)N[C@H]6C(C)(C)[C@H](Oc7ccc(C#N)c(Cl)c7)C6(C)C)cc5)CC4)ccc31)C(=O)N(C1CCC(=O)NC1=O)C2=O` (some centres unmarked) [Compound 15], under setting [1], the remaining activity at 0.1 µM is 106%.

As for `CC(C)n1c2c(c3cc(OCCN4CCN(c5ccc(C(=O)N[C@H]6C(C)(C)[C@H](Oc7ccc(C#N)c(Cl)c7)C6(C)C)cn5)CC4)ccc31)C(=O)N(C1CCC(=O)NC1=O)C2=O` (some centres unmarked) [Compound 16], the remaining activity at 0.1 µM under setting [3] turned out to be 96%.

For the compound `CC(C)n1c2c(c3cc(OCCN4CCN(c5ccc(C(=O)N[C@H]6C(C)(C)[C@H](Oc7ccc(C#N)c(Cl)c7)C6(C)C)cc5)CC4)ccc31)C(=O)N(C1CCC(=O)NC1=O)C2=O` (some centres unmarked) [Compound 17], the remaining activity at 0.1 µM under setting [3] is 127%.

As for `CC1(C)[C@H](NC(=O)c2ccc(N3CCN(CCOc4ccc5c6c(sc5c4)C(=O)N(C4CCC(=O)NC4=O)C6=O)CC3)cn2)C(C)(C)[C@H]1Oc1ccc(C#N)c(Cl)c1` (some centres unmarked) [Compound 18], under setting [4], the “Androgen Receptor Remaining (%)” value is 99%.

With `Cn1c2c(c3cc(OCCN4CCN(c5ccc(C(=O)N[C@H]6C(C)(C)[C@H](Oc7ccc(C#N)c(Cl)c7)C6(C)C)cn5)CC4)ccc31)C(=O)N(C1CCC(=O)NC1=O)C2=O` (some centres unmarked) [Compound 19], the remaining activity at 0.1 µM under setting [1] is 73%.

Turning to `CCn1c2c(c3ccc(OCCCN4CCN(c5ccc(C(=O)N[C@H]6C(C)(C)[C@H](Oc7ccc(C#N)c(Cl)c7)C6(C)C)cn5)CC4)cc31)C(=O)N(C1CCC(=O)NC1=O)C2=O` (some centres unmarked) [Compound 20], under setting [3], the remaining activity at 0.1 µM stood at 63%.

In the case of `CCn1c2c(c3ccc(OCCCN4CCN(c5ccc(C(=O)N[C@H]6C(C)(C)[C@H](Oc7ccc(C#N)c(Cl)c7)C6(C)C)cc5)CC4)cc31)C(=O)N(C1CCC(=O)NC1=O)C2=O` (some centres unmarked) [Compound 21], the remaining activity at 0.1 µM under setting [3] was 92%.

Turning to `CCCn1c2c(c3ccc(OCCCN4CCN(c5ccc(C(=O)N[C@H]6C(C)(C)[C@H](Oc7ccc(C#N)c(Cl)c7)C6(C)C)cn5)CC4)cc31)C(=O)N(C1CCC(=O)NC1=O)C2=O` (some centres unmarked) [Compound 22], the remaining activity at 0.1 µM under setting [3] stood at 89%.

Take `CCCn1c2c(c3ccc(OCCCN4CCN(c5ccc(C(=O)N[C@H]6C(C)(C)[C@H](Oc7ccc(C#N)c(Cl)c7)C6(C)C)cc5)CC4)cc31)C(=O)N(C1CCC(=O)NC1=O)C2=O` (some centres unmarked) [Compound 23]: the remaining activity at 0.1 µM under setting [3] worked out at 88%.

Take `Cn1c2c(c3cccc(OCCCN4CCN(c5ccc(C(=O)N[C@H]6C(C)(C)[C@H](Oc7ccc(C#N)c(Cl)c7)C6(C)C)cn5)CC4)c31)C(=O)N(C1CCC(=O)NC1=O)C2=O` (some centres unmarked) [Compound 24]: the remaining activity at 0.1 µM under setting [1] is 62%.

Regarding `Cn1c2c(c3cccc(OCCCN4CCN(c5ccc(C(=O)N[C@H]6C(C)(C)[C@H](Oc7ccc(C#N)c(Cl)c7)C6(C)C)cc5)CC4)c31)C(=O)N(C1CCC(=O)NC1=O)C2=O` (some centres unmarked) [Compound 25], the remaining activity at 0.1 µM under setting [1] is 80%.

For the compound `CCn1c2c(c3ccc(OCCCN4CCN(c5ccc(C(=O)N[C@H]6CC[C@H](Oc7ccc(C#N)c(Cl)c7)CC6)cn5)CC4)cc31)C(=O)N(C1CCC(=O)NC1=O)C2=O` (some centres unmarked) [Compound 26], the remaining activity at 0.1 µM under setting [3] turned out to be 75%.

In the case of `CCn1c2c(c3ccc(OCCCN4CCN(c5ccc(C(=O)N[C@H]6CC[C@H](Oc7ccc(C#N)c(Cl)c7)CC6)cc5)CC4)cc31)C(=O)N(C1CCC(=O)NC1=O)C2=O` (some centres unmarked) [Compound 27], under setting [3], the remaining activity at 0.1 µM was 107%.

Regarding `Cn1c2c(c3ccc(OC4CCN(CC5CCN(c6ncc(C(=O)N[C@H]7CC[C@H](Oc8ccc(C#N)c(Cl)c8)CC7)cn6)CC5)CC4)cc31)C(=O)N(C1CCC(=O)NC1=O)C2=O` (some centres unmarked) [Compound 28], under setting [2], the DC50 was 25 to 100 nM.

As for `CCn1c2c(c3ccc(OCCN4CCN(c5ccc(C(=O)N[C@H]6C(C)(C)[C@H](Oc7ccc(C#N)c(Cl)c7)C6(C)C)cc5)CC4)cc31)C(=O)N(C1CCC(=O)NC1=O)C2=O` (some centres unmarked) [Compound 30], the remaining activity at 0.1 µM under setting [3] was 56%.

Consider `CCn1c2c(c3ccc(OCCN4CCN(c5ccc(C(=O)N[C@H]6CC[C@H](Oc7ccc(C#N)c(Cl)c7)CC6)cn5)CC4)cc31)C(=O)N(C1CCC(=O)NC1=O)C2=O` (some centres unmarked) [Compound 31], for which the remaining activity at 0.1 µM under setting [3] came to 47%. Moreover, the DC50 under setting [5] was in the range of 25 to 100 nM.

Consider `CCn1c2c(c3ccc(OCCN4CCN(c5ccc(C(=O)N[C@H]6CC[C@H](Oc7ccc(C#N)c(Cl)c7)CC6)cc5)CC4)cc31)C(=O)N(C1CCC(=O)NC1=O)C2=O` (some centres unmarked) [Compound 32], for which the remaining activity at 0.1 µM under setting [3] was found to be 59%.

For the compound `Cn1c2c(c3ccc(OCC4CCN(c5ccc(C(=O)N[C@H]6CC[C@H](Oc7ccc(C#N)c(Cl)c7)CC6)cn5)CC4)cc31)C(=O)N(C1CCC(=O)N(CO)C1=O)C2=O` (some centres unmarked) [Compound 34], under setting [1], the remaining activity at 0.1 µM worked out at 75%.

Turning to `Cn1c2c(c3ccc(OCC4CCN(c5ccc(C(=O)N[C@H]6CC[C@H](Oc7ccc(C#N)c(Cl)c7)CC6)cn5)CC4)cc31)C(=O)N(C1CCC(=O)NC1=O)C2=O` (some centres unmarked) [Compound 35], the remaining activity at 0.1 µM under setting [1] is 75%.

As to `CCn1c2c(c3ccc(OCC(C)COC4CCN(c5ccc(C(=O)N[C@H]6CC[C@H](Oc7ccc(C#N)c(Cl)c7)CC6)nn5)CC4)cc31)C(=O)N(C1CCC(=O)NC1=O)C2=O` (some centres unmarked) [Compound 36], the DC50 under setting [5] lay within 10 to 25 nM.

On to `CCn1c2c(c3ccc(OCCCN4CCN(c5ccc(C(=O)N[C@H]6C(C)(C)[C@H](Oc7ccc(C#N)c(Cl)c7)C6(C)C)nn5)CC4)cc31)C(=O)N(C1CCC(=O)NC1=O)C2=O` (some centres unmarked) [Compound 37], for which, under setting [3], the remaining activity at 0.1 µM is 55%.
